Test results as given in ChEMBL document CHEMBL1201862, “PubChem BioAssay data set” (2004).
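The compound was tested at five concentrations on cells cultured in 96-well plates, with a 48-hour exposure period. Here, GI50 denotes the concentration required for 50% inhibition of growth.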 Activity calls are given as the source filed them. Rule as the data show it: active = GI50 up to about 1.1 µM and inactive = higher.

What was measured:
Assay in all cases: DTP human tumour cell line panel, 48 h
BT-549 = tested on: BT-549
CCRF-CEM = tested on: CCRF-CEM
HCT-15 = tested on: HCT-15
HOP-92 = tested on: HOP-92
HT-29 = tested on: HT-29
IGROV-1 = tested on: IGROV-1
KM12 = tested on: KM12
LOX IMVI = tested on: LOX IMVI
MCF7 = tested on: MCF7
MDA-MB-435 = tested on: MDA-MB-435
Malme-3M = tested on: Malme-3M
OVCAR-4 = tested on: OVCAR-4
OVCAR-5 = tested on: OVCAR-5
RPMI-8226 = tested on: RPMI-8226
RXF 393 = tested on: RXF 393
SNB-19 = tested on: SNB-19
SNB-75 = tested on: SNB-75
SR = tested on: SR
SW-620 = tested on: SW-620
UO-31 = tested on: UO-31

SMILES | GI50 (BT-549) | GI50 (CCRF-CEM) | GI50 (HCT-15) [µM] | GI50 (HOP-92) | GI50 (HT-29) | GI50 (IGROV-1) | GI50 (KM12) | GI50 (LOX IMVI) | GI50 (MCF7) | GI50 (MDA-MB-435) | GI50 (Malme-3M) | GI50 (OVCAR-4) | GI50 (OVCAR-5) | GI50 (RPMI-8226) | GI50 (RXF 393) | GI50 (SNB-19) | GI50 (SNB-75) | GI50 (SR) | GI50 (SW-620) | GI50 (UO-31)
C/C=C(\C)C(O)C(C)C(O)C/C=C(C)/C=C(\C)C/C(C)=C/C/C=C(\C)C(O)C(C)c1ccc(CCC)c(=O)o1 (stereo not drawn) | 11.8 µM (inactive) | 61.8 µM (inactive) | 1.17 | 16.6 µM (inactive) | 1.69 µM (inactive) | 14.6 µM (inactive) | 7.19 µM (inactive) | 6.68 µM (inactive) | 4.25 µM (inactive) | 9.12 µM (inactive) | 9.25 µM (inactive) | 10 µM (inactive) | 19.8 µM (inactive) | 16.1 µM (inactive) | 26.7 µM (inactive) | 16.1 µM (inactive) | 10.8 µM (inactive) | 18.8 µM (inactive) | 12.3 µM (inactive) | 7.82 µM (inactive)
CC1OC(OC2C(CO)OC(O[C@H]3CC[C@@]4(C)C(=CC[C@H]5[C@@H]6C[C@@H]7O[C@](O)(CC[C@H](CO)COC8OC(CO)C(O)C(O)C8O)[C@@H](C)[C@@H]7[C@@]6(C)CC[C@@H]54)C3)C(OC3OC(C)C(O)C(O)C3O)C2O)C(O)C(O)C1O (stereo partly drawn) | > 100 µM (inactive) | > 100 µM (inactive) | 54 | > 100 µM (inactive) | > 100 µM (inactive) | > 100 µM (inactive) | > 100 µM (inactive) | > 100 µM (inactive) | > 100 µM (inactive) | > 100 µM (inactive) | > 100 µM (inactive) | > 100 µM (inactive) | > 100 µM (inactive) | > 100 µM (inactive) | > 100 µM (inactive) | > 100 µM (inactive) | > 100 µM (inactive) | > 100 µM (inactive) | > 100 µM (inactive) | > 100 µM (inactive)
COC(=O)CC1C(C)(C)C(=O)C2CC3=C4CC(=O)OC(c5ccoc5)C4(C)CCC3C1(C)C2=O (stereo not drawn) | > 100 µM (inactive) | > 100 µM (inactive) | > 100 | > 100 µM (inactive) | > 100 µM (inactive) | > 100 µM (inactive) | > 100 µM (inactive) | > 100 µM (inactive) | > 100 µM (inactive) | > 100 µM (inactive) | > 100 µM (inactive) | > 100 µM (inactive) | > 100 µM (inactive) | > 100 µM (inactive) | > 100 µM (inactive) | > 100 µM (inactive) | > 100 µM (inactive) | > 100 µM (inactive) | > 100 µM (inactive) | 
COc1ccc2c3c1O[C@H](c1ccc(O)cc1)[C@H]3[N+](C)(C)CC2 | > 100 µM (inactive) | > 100 µM (inactive) | > 100 | > 100 µM (inactive) | > 100 µM (inactive) | > 100 µM (inactive) | > 100 µM (inactive) | > 100 µM (inactive) | > 100 µM (inactive) | > 100 µM (inactive) | > 100 µM (inactive) | 5.51 µM (inactive) | > 100 µM (inactive) | 47.4 µM (inactive) | > 100 µM (inactive) | 49.2 µM (inactive) | > 100 µM (inactive) | > 100 µM (inactive) | > 100 µM (inactive) | > 100 µM (inactive)
CCCCCCCCCCCCCCCCCCNc1ccn(C2OC(CO)C(O)C2O)c(=O)n1 (stereo not drawn) | > 100 µM (inactive) | 5.37 µM (inactive) | > 100 | > 100 µM (inactive) | > 95.5 µM (inactive) | 14.9 µM (inactive) | 84.1 µM (inactive) | > 62.8 µM (inactive) | 57.1 µM (inactive) | > 100 µM (inactive) | > 100 µM (inactive) | > 100 µM (inactive) | > 100 µM (inactive) | 34 µM (inactive) | 7.66 µM (inactive) | > 25.4 µM (inactive) | 29.9 µM (inactive) | 23.7 µM (inactive) | > 100 µM (inactive) | > 100 µM (inactive)
CCCCOc1ccc(/C=C/C2=[N+](CCO)CCO2)cc1 | > 100 µM (inactive) | 30.4 µM (inactive) | 51.9 | 44.3 µM (inactive) | 17.6 µM (inactive) | 85.5 µM (inactive) | 34 µM (inactive) |  | 29.4 µM (inactive) | > 100 µM (inactive) | 80 µM (inactive) | > 100 µM (inactive) | > 100 µM (inactive) | 26.8 µM (inactive) | 17.9 µM (inactive) | > 100 µM (inactive) | 67.1 µM (inactive) | 38 µM (inactive) | 33.6 µM (inactive) | 32.1 µM (inactive)
Cc1cc(Nc2ccc(/N=N/c3ccc(O)c4ncccc34)cc2)nc(C)n1 | 16.4 µM (inactive) | 2.75 µM (inactive) | 4.37 | 9.75 µM (inactive) | 31.2 µM (inactive) | 8.57 µM (inactive) | 12.4 µM (inactive) | 6.52 µM (inactive) | 11 µM (inactive) | 9.29 µM (inactive) | 18.6 µM (inactive) | 18 µM (inactive) | 35.2 µM (inactive) | 5.61 µM (inactive) | 12.7 µM (inactive) | 8.53 µM (inactive) | 9.35 µM (inactive) | 6.34 µM (inactive) | 13.5 µM (inactive) | 11 µM (inactive)
